Among the data in ChEMBL document CHEMBL1148229, “Synthesis of a novel intercalator based on 2,2'-binaphthalene bearing dimethylammonium groups” (Bioorg Med Chem Lett, 2004) are Ki, Tm and C50 values, retold here.

The structures appear in SMILES notation.

Assay [1] deals with Nucleic Acid. In words: Intrinsic association constant for DNA. The class given is nucleic-acid assay, Bos taurus.
Assay [2] relates to Nucleic Acid. In words: Melting temperature (Tm) of DNA in the presence of compound (5 uM). The assay is classed as functional. The note with it: Bos taurus.
The target in assay [3] is Nucleic Acid. The assay is described as follows: Apparent association constant for DNA. The assay is classed as nucleic-acid assay, Bos taurus.
In assay [4] the test system is Nucleic Acid. The assay is described as follows: Melting temperature (Tm) of DNA in the absence of the compound. The class given is functional. Particulars: Bos taurus.
A short description of assay [5]: Concentration of compound required for reduction of the fluorescence of ethidium bromide. The class given is functional.

Take `CNc1ccc2ccccc2c1`: the Ki at Nucleic Acid [1] was 2200 M⁻¹.
Still for that read-out and setting: then `CC[n+]1c(-c2ccccc2)c2cc(N)ccc2c2ccc(N)cc21.[Br-]` [HOMIDIUM BROMIDE], with 360000 M⁻¹.
Turning to `CN(C)Cc1cccc2ccc(-c3ccc4cccc(CN(C)C)c4c3)cc12`, the Tm in the assay on Nucleic Acid [2] is 81.2 °C; in the assay on Nucleic Acid [4] it was 75 °C. Besides, the Ki on Nucleic Acid [3] is 100000 M⁻¹; at Nucleic Acid [1], 800000 M⁻¹. This compound yielded a C50 in assay [5] of 7.2 µM.
